In assay [1] the test system is cancer cell proliferation. The assay is described as follows: Cancer cell proliferation, CDA targeting combined with metabolic inhibitor (FIG. 7). In kind it is cell-based. The settings on record: in combination with CDA targeting. The text has this: This finding opens several other combinatory therapeutic options as glutaminase (CB-839, FIG. 7) and α-KG dehydrogenase (CPI-613, a lipoate analog, inhibits mitochondrial enzymes pyruvate dehydrogenase (PDH) and α-KG dehydrogenase in NCI-H460 cell line, disrupts tumor cell mitochondrial metabolism) inhibitors are being evaluated clinically for PDA subjects^53.

For assay [2], the system named is pancreatic cancer cells. The assay is described as follows: Sensitization of pancreatic cancer cells to gemcitabine by pharmacological inhibition of CDA (FIG. 6A). It is filed as cell-based, human. The settings on record: in vitro, CDA inhibitor combined with gemcitabine.
For assay [3], the system named is pancreatic cancer cells. The assay is described as follows: Cell proliferation under pharmacological inhibition of CDA, without chemotherapy (FIG. 6B). It is filed as cell-based, human. The settings on record: CDA inhibitor alone.
For assay [4], the system named is pancreatic cancer cells. The assay is described as follows: Tumor metabolism (NAD+/NADH ratio) under pharmacological inhibition of CDA (FIG. 6C). It is filed as cell-based, human. The settings on record: CDA inhibitor alone, FIG. 6C (NAD+/NADH ratio).
From the text: Accordingly, we measure the glycolytic flux in CDA-deficient cells and the expression of key proteins involved in glycolysis in response to CDA targeting.
The test system of a further assay is PDA. The following applies: in combination with gemcitabine, compared with gemcitabine alone, reference 6; cited from earlier work.
Assay [5] relates to gemcitabine-resistant cells. The settings on record: reference 13; cited from earlier work.

This is an account of results in US20190076464A1, “CYTIDINE DEAMINASE INHIBITORS FOR THE TREATMENT OF PANCREATIC CANCER” (INSERM (OMSTOTIT NATIONAL DE LA SANTÉ ET DE LA RECHERCHE …, priority 2016, published 2019).

Consider `O=CC[C@@H](O)[C@H](O)[C@H](O)CO` [2-deoxy Glucose], for which the cancer cell proliferation result in assay [1] is “strongly inhibits cancer cell proliferation”. `O=C(Cc1cccc(OC(F)(F)F)c1)Nc1ccc(CCCCc2nnc(NC(=O)Cc3ccccn3)s2)nn1` [CB839]: the cancer cell proliferation result in assay [1] is “strongly inhibits cancer cell proliferation”. In the case of `O=C1NCC=CCN1[C@@H]1O[C@H](CO)[C@@H](O)[C@H]1O` [DR, 1,3-diazepinone riboside], the sensitization to gemcitabine result in the assay on pancreatic cancer cells [2] is reported as “sensitizes pancreatic cancer cells to gemcitabine”. The cell proliferation entry with pancreatic cancer cells [3] is given as “fails to alter cell proliferation”. For the same compound, the tumor metabolism result in the assay on pancreatic cancer cells [4] is on record as “fails to alter”. As to `C#Cc1cccc(Nc2ncnc3cc(OCCOC)c(OCCOC)cc23)c1` [Erlotinib], the overall survival time result in the assay on PDA is “only slightly increases overall survival time”. For `O=C1NC(O)CCN1[C@@H]1O[C@H](CO)[C@@H](O)[C@H]1O` (stereo partly shown) [THU, Tetrahydrouridine], in assay [5], the sensitivity to gemcitabine result is on record as “increases the sensitivity to gemcitabine”.
